From US6787564B2, “Optically active clausenamides, process of the preparation thereof, pharmaceutical composition containing the same and their medical use” (Institute of Materia Medica, Chinese Academy of Medical …, priority 2002, dated 2004)

Columns and labels:
[1] = tested on: dentate gyrus of hippocampus; experiment: induction of LTP in hippocampal of rat (population spike amplitude); assay type: in vivo, SD rats; details: I.C.V.; means ± SD
Text: Adult male SD rats were anesthetized to maintain a surgical level. A stainless steel cannula-recording electrode was placed in DG (dentate gyrus) of hippocampus using a stereotaxic instrument. The combination of cannula-recording electrode was constructed by insulating the outside of the cannula, except at the tip and top. In the top noninsulated area, a stainless steel wire was wrapped around the cannula and connected to the amplifier via an amphenol connector. The four pairs optically active clausenamides shown in table 9 was delivered by I.C.V. Responses were evoked via direct stimulation of the performant path (PP) using a stainless steel bipolar stimulating electrode. Constant current stimulation provided by a stimulator was delivered to the stimulating electrode through a Stimulus Isolation Unit.
The stimulating electrode was adjusted until a characteristic EPSP was observed under constant current. The evoked responses were amplified on a series alternating current preamplifier, using a microcomputer, and then stored for off-line analysis using DataWave software. The current intensity that elicited a 50% maximal response in each animal was determined and used for all subsequent stimulation. To measure treatment effects, responses were evoked once every 30 sec throughout the entire experiment, and population spike amplitude(PSA) were calculated.

[2] = tested on: Human embryonic neural stem cells; experiment: colony-form frequency in human embryonic neural stem cells; assay type: cell-based; details: 1 μM; for Colonies, 6 weeks / Colonies, 4 weeks / Colonies, 3 weeks: N 4; for Colonies, 6 weeks: Control(DMSO) 22.25 ± 4.86; for Colonies, 4 weeks: Control(DMSO) 30.33 ± 4.99; for Colonies, 3 weeks: Mean ± SD, Control(DMSO) 43.00 ± 4.97
Protocol: Human embryonic brain neural stem cells(NSC) were dissociated enzymatically with 0.05% trypsin-0.53 mM EDTA and cultured in the DMEM/F12 medium with N2 supplement (GIBCO), fibroblast growth factor-2 (20 ng/ml), epidermal growth factor (20 ng/ml) at 37° C. The media were changed once every week. The single cell suspension from neurosphere cells of NSC was dissociated by 0.1% trypsin. 2×10^4 cells were seeded in a well of a 96-well plate. After 24 hours, the dose at 1 μM of tested chemical was added in a well. 6 chemicals, (−)neoclausenamide(−), (+)neoclausenamide(+), (−)epineoclausenamide(−), (+)epineoclausenamide(+), (−)cisneoclausenamide(−) and (+)cisneoclausenamide(+), were detected. 4 wells were used each group. The media with tested chemical were changed once every week. The colonies of NSC were formed and counted under a microscopy at 3 weeks, 4 weeks and 6 weeks.

[3] = tested on: animals with anisodine-induced memory impairment; experiment: step-through test, memory impairment induced by anisodine; assay type: in vivo
Text: (§1) This invention used one trial avoidance task—step-down and step-through tests and water maze to compare the improving memorial effects of (±), (−) clausenamide. The drugs were given orally once to animals before experiment in step-down and step-through tests. The water maze test lasted for 5 days in succession. The results were expressed as latency and errors number.

[4] = tested on: animals with anisodine-induced memory impairment; experiment: memory impairment induced by anisodine in water maze test; assay type: in vivo
Text: as §1

[5] = tested on: β-AP (25-35)-treated rats; experiment: one trial passive avoidance of β-AP (25-35)-treated rats; assay type: in vivo; details: β-AP-treated + vehicle, n = 8, MEAN ± S.E.M.
[6] = tested on: A β 25-35 treated rats; experiment: Morris water maze, A β 25-35 induced impairment of memory; assay type: in vivo; details: A β 25-35 alone
Text: Pathological features of Alzheimer's disease (AD) include extensive neuronal loss and the presence of numerous neurofibrillary tangles and senile plaques in the brain. The senile plaques contain amyloid fibrils derived from a 39-43 amino acids peptide referred to as β-amyloid or A β which can produce neurotoxicity. A β 25-35 poccesses the similar neurotoxicity and ability of self-aggregation as A β 1-42. Administrated aggregated A β 25-35 into rat's lateral cerebral ventricle induced memory impairment in Morris water maze.
With increasing of training days, the initial heading angle became small. On the 3th day, the initial heading angle of A β group was larger than control. […] (see Tab.3)
There are four strategies for finding platform in Morris water maze: random, circle, taxis and line. In the beginning of training the search strategies for finding target is mainly circle and random, with the increasing of training, the percentage of the two strategies declined gradually, Beginning from the 3th day, declining speed in control and (−) clausenamide group was faster than A β,(+) clausenamide and piracetam groups.

[7] = tested on: animals; experiment: memory in water maze test; assay type: in vivo
Text: as §1

[8] = tested on: dentate gyrus granule cells; experiment: basal synaptic transmission / LTP in dentate gyrus of hippocampus in anesthetized rats (population spike amplitude); assay type: in vivo; details: for decrease of PS amplitude compared with that of (−) clausenamide: 60 min
Text: Drugs or vehicle injection were delivered via cannula in the lateral cerebral ventricle at final concentration of 2×10^−6 mol/L. The population spike (PS) amplitude was employed as an indication of the level of excitation of the granular cell population in the dentate gyrus. To obtain this measurement, an evoked response was generated in the dentate gyrus granule cell layer by stimulating the pp at low freguency (0.033 Hz) with. single square wave pulses of 0.15 ms duration The LTP formation must accord the following creteria: The PS amplitude increased is over 30% and this high PS amplitude can persist for 40 min.

[9] = anisodine + drug 10 mg/kg (Tab 7)
[10] = anisodine + drug 50 mg/kg (Tab 7)

Row | Compound | PSA (%), 15 min [1] [%] | PSA (%), 30 min [1] [%] | PSA (%), 60 min [1] [%] | frequency of colonies of NSC vs control group at 6 weeks (in words) [2] | Colonies, 6 weeks [2] | Colonies, 4 weeks [2] | Colonies, 3 weeks [2] | also measured
1 | CN1C(=O)[C@@H](O)[C@H]([C@H](O)c2ccccc2)[C@@H]1c1ccccc1 [(−)cisneoclausenamide, 3S4S5R6S (−)cisneoclausenamide] | 94.1 ± 6.7 | 98.2 ± 6.6 | 94.9 | significantly difference | 33.50 ± 4.20 | 35.25 ± 7.46 | 49.50 ± 5.43 | 
2 | CN1[C@@H]2CC(OC(=O)[C@@](O)(CO)c3ccccc3)C[C@H]1[C@@H]1O[C@@H]12 (stereo partly drawn) [Anisodine, reference compound] |  |  |  |  |  |  |  | Error number ([3]; anisodine 10 mg/kg alone, 0.9% Nacl 2.0 ± 3.8 (Tab 7)): 14.1 ± 8.9; Latencies ([3]; anisodine 10 mg/kg alone, 0.9% Nacl 152.1 ± 64.2, N = 10 (Tab 7)): 35.8 ± 76.4 s; Errors number ([4]; anisodine group alone, 10 animals): 15.9 ± 11.3
3 | CN1C(=O)[C@@H](O)[C@@H]([C@H](O)c2ccccc2)[C@H]1c1ccccc1 [(−)epineoclausenamide, 3S4R5S6S(−)epineoclausenamide] |  |  |  | significantly difference | 32.50 ± 7.05 | 36.75 ± 7.59 | 58.00 ± 13.02 | 
4 | A β 25-35: β-amyloid fragment with neurotoxicity and self-aggregation like A β 1-42; icv injection induces memory impairment (GSNKGAIIGLM; Amyloid-beta protein 42; UniProt P05067 696-706, looked up, fragment) |  |  |  |  |  |  |  | Number of error, Acquisition ([5]; sham-operated + vehicle 0.3 ± 0.12): 0.9 ± 0.33; Number of error, Training ([5]; sham-operated + vehicle 1.6 ± 0.42): 2.6 ± 0.71; initial heading angle, training day 5 ([6]; control 15.4 ± 20.4): 46.7 ± 19.4; initial heading angle, training day 4 ([6]; control 29.6 ± 10.7): 60.6 ± 23.8; initial heading angle, training day 3 ([6]; control 47.3 ± 15.1): 73.6 ± 20.3; initial heading angle, training day 2 ([6]; control 76.8 ± 29.8): 98.7 ± 30.4; initial heading angle, training day 1 ([6]; control 93.6 ± 34.6): 106.3 ± 29.8
5 | CN1C(=O)[C@H](O)[C@@H]([C@H](O)c2ccccc2)[C@@H]1c1ccccc1 [(−)cisclausenamide, 3R4R5R6S (−)cisclausenamide] | 126.2 ± 2.3 | 141.2 ± 8.6 | 205.4 ± 24.7 |  |  |  |  | 
6 | CN1C(=O)[C@H](O)[C@@H]([C@@H](O)c2ccccc2)[C@H]1c1ccccc1 [(+)cisneoclausenamide, 3R4R5S6R (+)cisneoclausenamide] | 135.0 ± 12.9 | 150.9 ± 19.9 | 192.3 ± 22.4 | not any difference | 24.00 ± 4.69 | 42.50 ± 10.01 | 47.00 ± 9.03 | 
7 | CN1C(=O)[C@H](O)[C@H]([C@@H](O)c2ccccc2)[C@@H]1c1ccccc1 [(+)epineoclausenamide, 3R4S5R6R(+)epineoclausen amide] |  |  |  | not any difference | 26.00 ± 2.94 | 38.50 ± 5.02 | 49.75 ± 10.26 | 
8 | CN1C(=O)[C@H](O)[C@H]([C@H](O)c2ccccc2)[C@H]1c1ccccc1 [(+)epiclausenamide, 3R4S5S6S (+)epiclausenamide] | 136.0 ± 22.8 | 147.5 ± 15.0 | 207.8 ± 12.8 |  |  |  |  | 
9 | CN1C(=O)[C@@H](O)[C@@H]([C@@H](O)c2ccccc2)[C@@H]1c1ccccc1 [(−)epiclausenamide, 3S4R5R6R (−)epiclausenamide] | 97.8 ± 21.7 | 91.2 ± 22.5 | 117.3 ± 22.5 |  |  |  |  | 
10 | CN1C(=O)[C@@H](O)[C@H]([C@@H](O)c2ccccc2)[C@H]1c1ccccc1 [(+)cisclausenamide, 3S4S5S6R (+)cisclausenamide] | 87.3 ± 4.4 | 102.9 ± 5.9 | 122.5 ± 14.5 |  |  |  |  | 
11 | Racemic clausenamide [(±) clausenamide, reference compound] |  |  |  |  |  |  |  | Error number [3, 9]: 11.3 ± 21.5; Latencies [3, 9]: 43.0 ± 65.8 s; Error number [3, 10]: 14.4 ± 12.3; Latencies [3, 10]: 79.9 ± 63.6 s; Lalencies reaching platform, 3rd day ([7]; 10 mg/kg): 23.9 ± 22.6 s; Lalencies reaching platform, 4th day ([7]; 10 mg/kg): 17.1 ± 14.3 s; Lalencies reaching platform, Second day ([7]; 10 mg/kg): 35.8 ± 35.2 s; Lalencies reaching platform, 3rd day ([7]; 50 mg/kg): 25.7 ± 13.8 s; Lalencies reaching platform, 4th day ([7]; 50 mg/kg): 14.6 ± 10.4 s; Lalencies reaching platform, Second day ([7]; 50 mg/kg): 36.6 ± 37.0 s; Errors number ([4]; anisodine + drug 10 mg/kg): 16.6 ± 23.9; Errors number ([4]; anisodine + drug 100 mg/kg): 9.11 ± 3.8; effect on PS amplitude (in words) ([8]; 2 μM to 10 μM): inhibitory effect on PS amplitude; decrease of PS amplitude compared with that of (−) clausenamide ([8]; first of the two concentrations (2 μM)): 44%; decrease of PS amplitude compared with that of (−) clausenamide ([8]; second of the two concentrations (10 μM)): 55%; LTP formation (PS amplitude increase over 30% persisting 40 min) ([8]; (−) at 2×10^−6 mol/L, (±) up to 5 times that): could not induce LTP
